Measurements: patent publication US20080249075A1, “C11 Modified Retrosteroids as Progesterone Receptor Modulator Compounds” (Solvay Pharmaceuticals GmbH, priority 2007, published 2008)

Experiments:
[1] = molecular target: T1, human progesterone receptor (Homo sapiens, UniProt P06401); test: Progesterone receptor binding assay, human PR (CEREP); conditions: 3H-R5020 as ligand, MCF7 cells as source of PR
T1 sequence (P06401 679-933 limits assumed): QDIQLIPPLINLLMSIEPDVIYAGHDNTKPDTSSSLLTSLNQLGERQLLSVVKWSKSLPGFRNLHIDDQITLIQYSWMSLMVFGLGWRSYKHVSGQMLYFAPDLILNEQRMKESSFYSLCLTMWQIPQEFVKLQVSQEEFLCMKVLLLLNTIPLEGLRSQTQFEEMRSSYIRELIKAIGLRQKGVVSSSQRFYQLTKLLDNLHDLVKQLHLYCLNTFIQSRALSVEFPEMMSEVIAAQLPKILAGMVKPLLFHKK
Description: The progesterone receptor (PR) binding assays were performed at CEREP (Celle I'Evescault, France).
The binding to the human progesterone receptor (Assay Cat No: Progesterone receptor-814h) was be measured using 3H-R5020 as ligand and MCF7 cells as the source of progesterone receptor. The assay is performed as described by Eckert & Katzenellenbogen [1982]. The binding to the bovine progesterone receptor (Assay Cat No: Progesterone receptor-814) was measured using 3H-R5020 as ligand and uterus tissue as the source of progesterone receptor. The assay was performed as described by Hurd & Moudgil [1988].
The results of the receptor binding assay are presented as the individual pKi values, which were determined by measuring the binding activity to the human or bovine PR, as indicated, for a concentration range of each compound.

[2] = test system: T47D human breast carcinoma cells; test: cells; type: cell-based; conditions: for PS [100 nM] (% stimulation): agonistic mode, alkaline phosphatase induction (100% = 1 nM Dydrogesterone); for PS [100 nM] (% stimulation) / PI [100 nM] (% inhibition): compound 100 nM; for PS [100 nM] (% stimulation) / PI [100 nM] (% inhibition) / pIC50: T47D cells; for PI [100 nM] (% inhibition): antagonistic mode, inhibition of alkaline phosphatase induction by 1 nM Dydrogesterone; for pIC50: antagonistic potency against 1 nM Dydrogesterone
Description: The progesterone-dependent modulation of alkaline phosphatase expression was examined using T47D human breast carcinoma cells [Keydar et al., 1979]. The assay was performed as previously described by Di Lorenzo et al. (1991) with the modification of using Dydrogesterone as comparative progestin to determine the antagonistic and agonistic activity.
The cell line was purchased from CLS Cell Lines Service (Hildastrasse 21, D-69214 Eppelheim, Germany). In brief, the cells were plated in 96-well plates at 40,000 cells/well using the following growth medium: RPMI 1640 with: 10% FBS, 1 mM Sodium Pyruvat MEM, 10 mM Hepes, 0.01 mg/ml Bovine insulin, and 25 μg/ml Gentamycin. After 24 h of cultivation, the growth medium was replaced with medium containing 2% fetal bovine serum and the test compounds were added to each well to achieve the appropriate compound concentration: For determination of agonistic activity only the test compounds were added; for measurement of antagonistic activity the test compounds and additionally Dydrogesterone as standard progesterone agonist was added to a final concentration of 1 nM. After 48 h of cultivation, the medium was removed and the cells were washed with 200 μl of Dulbecco's phosphate-buffered saline without calcium and magnesium (PBS(−)). Then the cells were fixed with 3.7% formaldehyde in phosphate-buffered saline for 15 min at 22° C. After washing the cells with PBS, 100 μl of a […] (pNPP) solution (pNPP Liquid Substrate System; Sigma) was added to each well and incubated for 2 h at room temperature protected from light. The reaction was stopped with 100 μl 1N NaOH and the absorbance was measured with a spectrophotometer (Victor, Perkin Elmer) at 405 nm. The results are expressed as alkaline phosphatase induction (as 100% with 1 nM Dydrogesterone) or inhibition (against alkaline phosphatase induction by 1 nM Dydrogesterone) at a certain concentration of test compound.
% stimulation=(effect compound−basal)/(effect dydro 1 nM−basal)*100% inhibition of 1 nM Dydro=100*{1-[(effect compound−basal)/(effect dydro 1 nM−basal)]}
For each compound the % inhibition (PI) and % stimulation (PS), respectively, at a compound concentration of 100 nM was determined. For selected compounds, the corresponding values were measured for several different concentrations, and subsequently were plotted against the concentration of the test compound, and used to calculate the IC50 value (for the antagonistic potency; the IC50 value is the concentration (nM), required to reduce the maximal response by 50%) and EC50 values (for the agonistic potency; the EC50 value is the effective concentration (nM) that produced 50% of the maximum response), respectively.

`CC(=O)[C@H]1CC[C@H]2[C@@H]3C=CC4=CC(=O)CC[C@@]4(C)[C@@H]3C(OC(=O)Nc3ccc4cnn(C)c4c3)C[C@]12C` (stereo partly drawn) [compound 99, (1-Methyl-1H-indazol-6-yl)-carbamic acid dydrogesterone-11-yl ester] was tested, and the “Human PR binding (pKi)” value [1] was 6.3, the “PS [100 nM] (% stimulation)” value [2] was 0.0% and the “PI [100 nM] (% inhibition)” value [2] was 70.0%. The pIC50 [2] was 7.1.
Work on `CC(=O)[C@H]1CC[C@H]2[C@@H]3C=CC4=CC(=O)CC[C@@]4(C)[C@@H]3[C@@H](OC(=O)Nc3ccc4c(c3)N(C)C(=O)CO4)C[C@]12C` [compound 101, (4-Methyl-3-oxo-3,4-dihydro-2H-benzo[1,4]oxazin-6-yl)-carbamic acid dydrogesterone-11-yl ester] yielded a Ki ([1]; read-out: Human PR binding (pKi) (converted)) of 316 nM, an activation at 0.1 µM ([2]; Homo sapiens, T47D, 48 h, read-out: PS [100 nM] (% stimulation)) of 0% and an inhibition at 0.1 µM ([2]; Homo sapiens, T47D, read-out: PI [100 nM] (% inhibition)) of 72%. The IC50 ([2]; Homo sapiens, T47D, read-out: pIC50 (converted)) was 79.4 nM.
In the case of `CC(=O)[C@H]1CC[C@H]2[C@@H]3C=CC4=CC(=O)CC[C@@]4(C)[C@@H]3C(OC(=O)Nc3ccc4c(c3)NC(=O)C(C)S4)C[C@]12C` (stereo partly drawn) [compound 102, (2-Methyl-3-oxo-3,4-dihydro-2H-benzo[1,4]thiazin-6-yl)-carbamic acid dydrogesterone-11-yl ester], the “Human PR binding (pKi)” value [1] is reported as 6.3, the “PS [100 nM] (% stimulation)” value [2] is reported as 0.0% and the “PI [100 nM] (% inhibition)” value [2] is reported as 98.0%. It also gave a pIC50 [2] of 8.1.
